The values below are quoted from earlier work in patent publication US20120177733A1 (priority 2005, published 2012).

Assay in data set [1]: not given
The source holds these as a separate data set.

As for `CCOC(=O)C1=C(COCCN)NC(C)=C(C(=O)OC)C1c1ccccc1Cl` (stereo not shown) [Amlodipine besylate, 3-ethyl-5-methyl-2(2-aminoethoxymethyl)-4-(2-chlrorophenyl)-1,4-dihydro-6-methyl-3,5-pyridinedicarboxylate benzenesulphonate], the “absolute (oral) bioavailability” value is 64-90%. In addition, the solubility in water entry in data set [1] is “slightly soluble”.

As for `CCCCC(=O)N(Cc1ccc(-c2ccccc2-c2nnn[nH]2)cc1)[C@H](C(=O)O)C(C)C` [valsartan, (S)—N-valeryl-N-{[2′-(1H-tetrazole-5-yl)-biphenyl-4-yl]-methyl}-valine], the “absolute (oral) bioavailability” value was “about 25%” and the “absolute oral bioavailability, wide range” value is reported as 10-35%.
